Patent publication US20080193943A1, “Companion diagnostic assays for cancer therapy” (ABBOTT LABORATORIES, priority 2006, published 2008)

Assays:
DMS 53 = test: sensitivity of SCLC cell line to ABT-737; assay type: cell-based; conditions: Homo sapiens; DMS 53 SCLC cell line; read-out: sensitivity to ABT-737 (EC50 class)
Procedure: (§1) The following SCLC cell lines were obtained from ATCC (Manassis, Va.): NCI-H889, NCI-H1963, NCI-H1417, NCI-H146, NCI-H187, DMS53, NCI-H510, NCI-H1209, NCI-H526, NCI-H211, NCI-H345, NCI-H524, NCI-H69, NCI-H748, DMS79, NCI-H711, SHP77, NCI-446, NCI-H1048, NCI-H82, NCI-H196, SW1271, H69AR. All cells were cultured in the ATCC recommended media at 37° C. in a humidified atmosphere containing 5% CO2. Genomic DNA was isolated from the cell lines using a DNAeasy kit (Qiagen, Valencia, Calif.).
(§2) The 23 SCLC cell lines were tested for sensitivity to ABT-737 using the procedure described in Oltersdorf, T., “An inhibitor of Bcl-2 family proteins induces regression of solid tumours”, Nature, 435: 677-681, 2005, with a cell line classified as sensitive if its EC50<1 μM and as resistant if its EC50>10 μM. The sensitive cell line group consisted of NCI-H889, NCI-H1963, NCI-H1417, NCI-H146, NCI-H187, DMS 53, NCI-H510, NCI-H209, NCI-H526, NCI-H211, NCI-H345, and NCI-H524 and the resistant cell line group was comprised of NCI-H82, NCI-H196, SW1271, and H69AR.

H69AR = test: sensitivity of SCLC cell line to ABT-737; assay type: cell-based; conditions: Homo sapiens, read-out: sensitivity to ABT-737 (EC50 class)
Procedure: as §1, §2

NCI-H1417 = test: sensitivity of SCLC cell line to ABT-737; assay type: cell-based; conditions: Homo sapiens, read-out: sensitivity to ABT-737 (EC50 class)
Procedure: as §1, §2

NCI-H146 = test: sensitivity of SCLC cell line to ABT-737; assay type: cell-based; conditions: Homo sapiens, read-out: sensitivity to ABT-737 (EC50 class)
Procedure: as §1, §2

NCI-H187 = test: sensitivity of SCLC cell line to ABT-737; assay type: cell-based; conditions: Homo sapiens, read-out: sensitivity to ABT-737 (EC50 class)
Procedure: as §1, §2

NCI-H1963 = test: sensitivity of SCLC cell line to ABT-737; assay type: cell-based; conditions: Homo sapiens, read-out: sensitivity to ABT-737 (EC50 class)
Procedure: as §1, §2

NCI-H196 = test: sensitivity of SCLC cell line to ABT-737; assay type: cell-based; conditions: Homo sapiens, read-out: sensitivity to ABT-737 (EC50 class)
Procedure: as §1, §2

NCI-H209 = test: sensitivity of SCLC cell line to ABT-737; assay type: cell-based; conditions: Homo sapiens, read-out: sensitivity to ABT-737 (EC50 class)
Procedure: as §1, §2

NCI-H211 = test: sensitivity of SCLC cell line to ABT-737; assay type: cell-based; conditions: Homo sapiens, read-out: sensitivity to ABT-737 (EC50 class)
Procedure: as §1, §2

NCI-H345 = test: sensitivity of SCLC cell line to ABT-737; assay type: cell-based; conditions: Homo sapiens, read-out: sensitivity to ABT-737 (EC50 class)
Procedure: as §1, §2

NCI-H510 = test: sensitivity of SCLC cell line to ABT-737; assay type: cell-based; conditions: Homo sapiens, read-out: sensitivity to ABT-737 (EC50 class)
Procedure: as §1, §2

NCI-H524 = test: sensitivity of SCLC cell line to ABT-737; assay type: cell-based; conditions: Homo sapiens, read-out: sensitivity to ABT-737 (EC50 class)
Procedure: as §1, §2

NCI-H526 = test: sensitivity of SCLC cell line to ABT-737; assay type: cell-based; conditions: Homo sapiens, read-out: sensitivity to ABT-737 (EC50 class)
Procedure: as §1, §2

NCI-H82 = test: sensitivity of SCLC cell line to ABT-737; assay type: cell-based; conditions: Homo sapiens, read-out: sensitivity to ABT-737 (EC50 class)
Procedure: as §1, §2

NCI-H889 = test: sensitivity of SCLC cell line to ABT-737; assay type: cell-based; conditions: Homo sapiens, read-out: sensitivity to ABT-737 (EC50 class)
Procedure: as §1, §2

SW1271 = test: sensitivity of SCLC cell line to ABT-737; assay type: cell-based; conditions: Homo sapiens, read-out: sensitivity to ABT-737 (EC50 class)
Procedure: as §1, §2

solid tumors = conditions: from Oltersdorf, Nature 435: 677-681, 2005; cited from earlier work
[1] = tested on: SCLC and lymphoma cell lines; conditions: from Oltersdorf, Nature 435: 677-681, 2005; cited from earlier work

Q: What does the source list for `CN(C)CC[C@H](CSc1ccccc1)Nc1ccc(S(=O)(=O)NC(=O)c2ccc(N3CCN(Cc4ccccc4-c4ccc(Cl)cc4)CC3)cc2)cc1[N+](=O)[O-]` [ABT-737, N-(4-(4-((4′-chloro(1,1′-biphenyl)-2-yl)methyl)piperazin-1-yl)benzoyl)-4-(((1R)-3-(dimethylamino)-1-((phenylsulfanyl)methyl)propyl)amino)-3-nitrobenzenesulfonamide]?
A: EC50 (DMS 53): < 1 µM; EC50 (H69AR): > 10 µM; EC50 (NCI-H1417): < 1 µM; EC50 (NCI-H146): < 1 µM; EC50 (NCI-H187): < 1 µM; EC50 (NCI-H1963): < 1 µM; EC50 (NCI-H196): > 10 µM; EC50 (NCI-H209): < 1 µM; EC50 (NCI-H211): < 1 µM; EC50 (NCI-H345): < 1 µM; EC50 (NCI-H510): < 1 µM; EC50 (NCI-H524): < 1 µM; EC50 (NCI-H526): < 1 µM; EC50 (NCI-H82): > 10 µM; EC50 (NCI-H889): < 1 µM; EC50 (SW1271): > 10 µM; effect on solid tumors (solid tumors): induce regression of solid tumors; potency against a diverse panel of human cancer cell lines [1]: selective potency against SCLC and lymphoma cell lines
